A word on the melting point: it is the temperature of the solid-liquid transition.

Molecules are shown by their SMILES. Bounds are passed on as bounds.

For the compound `CCc1nc2c(C)cc(C)nc2n1-c1ccc(CCNC(=O)NS(=O)(=O)c2cc3ccccc3s2)cc1`, the melting point is 128 to 130 °C.

Take `Nc1nnc2c3c(c(N4CCCC4)nn12)CCCC3`: the melting point fell in the range of 243 to 244 °C.

`Fc1ccc(Cn2c(SC3CCNCC3)nc3cncnc32)cc1`: the melting point amounted to 114 °C.

The compound `CCCCCS(=O)(=O)NC(=O)/C=C/c1ccc(OCCCOCCOC)cc1Oc1ncc(C(F)(F)F)cc1Cl` had a melting point of 103 to 105 °C.

As to `CCCNC(=O)c1nc(C)ccc1C(=O)Nc1c(Cl)ccc(C)c1C#N`, the melting point is 129 to 131 °C.

In turn, `CC(=O)OCc1cc(COC(C)=O)n(C(c2ccccc2)(c2ccccc2)c2ccccc2)n1` gave a melting point of 119 to 121 °C.

`COc1ccc(C(=O)N2c3ccccc3C(n3c4ccccc4c4ccccc43)CC2COCc2ccccc2)cc1OC` (centres undefined) displayed a melting point of 203 to 204 °C.

Compound `Cc1cc2c(-c3ccccc3)c(CC(=O)O)n(C)c(=O)c2cc1C` displayed a melting point of 217 to 220 °C.

Compound `Nc1ccc(Sc2cnc3cc(Cl)ccc3n2)cc1` came in with a melting point of 144 to 147 °C.

For `CCOC(=O)c1ccc(CNc2ccncc2[N+](=O)[O-])cc1`, the melting point was in the range of 166 to 168 °C.

As to `Fc1cccc(Cl)c1CSc1nc2cnccc2[nH]1`, the melting point lay in the range of 224 to 226 °C.

Compound `O=C(O)c1c[nH]c(SCc2ccccc2)c1SCc1ccccc1` had a melting point of 160 to 162 °C.

`COCC1CN(c2ccc(C3CCCCC3)c([N+](=O)[O-])c2)C(=O)O1` (racemic) came in with a melting point of 105 to 106 °C.

`Cc1cc(-c2cc(COS(C)(=O)=O)c(=O)n(CC(C)C)n2)ccc1F`: the melting point lay within 115 to 117 °C.

Turning to `CCOC(=O)Cc1ccccc1NC(=O)c1sc2ccc(OC)cc2c1OC(C)C`, the melting point was in the range of 105 to 106 °C.

In the case of `CC(C)NC(=O)CCC(=NNC(N)=S)c1ccccc1`, the melting point was in the range of 66 to 71 °C.

As for `Cc1cc(C(=O)NCCc2ccccc2)n(C)n1`, the melting point fell in the range of 90.5 to 91.5 °C.

For `Cc1c(C)c(N2CCN(c3ccnc(Cl)n3)CC2)c(C)c2c1OC(C)(C)C2`, the melting point lay within 192 to 193 °C.

Take `Cc1ccc2[nH]c(=O)n(C(C)(C)C(=O)OCC(=O)c3ccccc3)c(=O)c2c1`: the melting point was 189 to 191 °C.

Regarding `CCOC(=O)COCCCC(=CC(N)C(=O)O)CP(=O)(O)O` (centres undefined), the melting point was 215 to 218 °C.

The compound `Sc1nncn1C1CCCCC1` had a melting point of 162 to 165 °C.

Take `Cc1cnc(C(=O)c2[nH]c3cc(Cl)ccc3c2CC(=O)O)s1`: the melting point lay in the range of 225 to 226 °C.

The compound `CN1CC(CN2CC(=O)NC2=O)CC2c3cccc4[nH]cc(c34)CC21` (centres undefined) gave a melting point of 199 to 201 °C.

As for `O=C1Cc2cc(O)ccc2N1c1c(Cl)cccc1Cl`, the melting point is 204 to 205 °C.

Take `N#Cc1ccc(C(=O)N2CCc3c(n(Cc4cccc(C#N)c4)c4ccccc34)C2)cc1`: the melting point is 178 to 180 °C.

On to `Nc1ccccc1C(=O)Nc1cccc2cc(Br)cnc12`, for which the melting point lay in the range of 147 to 150 °C.

`COc1cc2c(cc1O)CCC1C2CCC2(C)C(=O)CCC12` (centres undefined) came in with a melting point of 167 to 170 °C.

On to `CCCCc1nc(Cl)c(COC)n1Cc1ccc(C(=O)O)cc1`, for which the melting point lay in the range of 126 to 128 °C.

`CCOC(=O)c1ccc(SCC)c(-c2cc(C)no2)c1C` yielded a melting point of 39 to 40 °C.

Take `CSc1nc2c(n1-c1ccccc1)CCCC2`: the melting point was found to be 112 °C.

In turn, `CCc1cc2c(SCC(=O)OC)ncnc2s1` showed a melting point of 36 to 58 °C.

On to `Nc1nc(Cl)cc(NCC2(CO)CC(O)C2)n1` (centres undefined), for which the melting point fell in the range of 136 to 139 °C.

In the case of `CC(SC1COC(c2ccc(C(=O)Nc3ccc(CC#N)cc3)cc2)OC1)C(O)(Cn1cncn1)c1ccc(F)cc1F` (centres undefined), the melting point turned out to be 188 °C.

Compound `CCOC(=O)c1cc(C#N)ccn1` returned a melting point of 170 to 172 °C.

For `CS(=O)(=O)Nc1cccc(Nc2nc(Oc3ccc(F)cc3)c3nc[nH]c3n2)c1`, the melting point was 136 to 139 °C.

For `CCOC(=O)C1CC(O)CN1C(=O)c1ccc(OC)cc1` (centres undefined), the melting point came out at 64 °C.

As for `COc1ccc(C(NC(=O)C(C)c2ccccc2)c2cccc(Nc3c(N)c(=O)c3=O)c2)cc1` (centres undefined), the melting point lay within 206 to 209 °C.

In the case of `COC(=O)c1c(CC(C)C)nc2ccc(Br)cc2c1-c1ccccc1`, the melting point lay in the range of 108 to 110 °C.

Consider `COc1ccc(NC(=O)C(=O)N2CCC(Cc3ccc(F)cc3)CC2)cc1`, for which the melting point lay in the range of 105 to 107 °C.

In turn, `CC1CC(=O)C(C(=O)c2ccc(C(F)(F)F)cc2[N+](=O)[O-])C(=O)O1` (centres undefined) returned a melting point of 135 to 136 °C.

Compound `COc1cc(OCc2nccs2)ccc1/C=C/c1cc(/C=C/c2ccc3cc[nH]c3c2)n[nH]1` showed a melting point of 229 to 237 °C.

Compound `Cc1nc([C@H](Cc2ccccn2)N(C=O)c2cc3ccccc3[nH]2)n(C)c1-c1ccc(-n2ccnc2)cc1` had a melting point of 156 to 157 °C.

On to `Cc1sc(N)c(C(=O)c2ccccc2)c1C`, for which the melting point is 140 to 141 °C.

Compound `CNCCCn1cc2c(C3C(=O)Nc4ccc(Br)cc43)ncnc2n1` (centres undefined) yielded a melting point of 240 to 243 °C.

`Cc1noc(NS(=O)(=O)c2ccccc2-c2ccsc2)c1C` had a melting point of 147 to 148 °C.

On to `Cc1c(NC(=O)c2ccc(OCc3ccc(Cl)cc3)cc2)ccc2cc(CN3CCCC3)cnc12`, for which the melting point lay within 167 to 168 °C.

Compound `O=C(Cl)c1cc2n(c1)CCc1ccccc1C2=O` had a melting point of 147 °C.

Consider `COCC(=O)Nc1cccc(C2(c3ccncc3)N=C(N)N(C)C2=O)c1` (centres undefined), for which the melting point was in the range of 92 to 93 °C.

For `CCOC(=O)c1ccc(O)c(F)c1`, the melting point is 79 to 80 °C.

With `N#Cc1c(Cl)csc1N`, the melting point was 230 °C.

Consider `COc1ccc(C2CN(S(=O)(=O)c3ccc(C)cc3)Cc3ccccc32)c(CO)c1OC` (centres undefined), for which the melting point fell in the range of 162 to 164 °C.

For `CN(C)c1nc2cc(NC(=O)c3c(C(=O)N4CC(F)C4)cnn3C)ccn2n1`, the melting point was 243 to 244 °C.

As for `CC(C)(C)c1cc(-c2nnc(NS(C)(=O)=O)s2)cc(C(C)(C)C)c1O`, the melting point was in the range of 293 to 294 °C.

Take `O=C1c2ccccc2C(=O)N1c1n[nH]c2ccc(O)cc12`: the melting point is over 270 °C.

For the compound `CC(C)P1(=O)c2ccccc2CN1C` (centres undefined), the melting point was in the range of 72 to 74 °C.

As to `CN(CC1CC(c2ccc(F)cc2)=NO1)C1CCC(c2ccc3[nH]c(=O)oc3c2)CC1` (centres undefined), the melting point is 109 to 114 °C.

In turn, `COc1ccc2cccc(C=O)c2c1` displayed a melting point of 61 to 63 °C.

For `Cn1c(=O)sc2cc(C(=O)CSCCC(=O)O)c(Cl)cc21`, the melting point lay in the range of 120 to 121 °C.

In the case of `CCCCCCCCOc1ccc(C=[N+]([O-])C(C)(C)C)c(F)c1`, the melting point worked out at 35.6 °C.

Compound `Cc1oc(-c2ccccc2)nc1COc1ccc(COc2nn(Cc3ccc(OCc4nc(-c5ccccc5)oc4C)cc3)cc2CO)cc1` gave a melting point of 157 to 158 °C.

On to `CCCCC(CC)COc1cc(CO)c(-n2c3ccccc3c3ccccc32)cc1CO` (centres undefined), for which the melting point amounted to 128 °C.

`COc1cccc2c(Sc3nc(C)c(CC(=O)O)s3)cc(C(=O)O)nc12` returned a melting point of 176 to 179 °C.

`CCCn1nc2c(N)nc3c(c2c1CC(C)(C)O)CCCC3` registered a melting point of 143 to 145 °C.

`COc1ccccc1N1CCN(CCn2c(=O)c3sccc3n(CCC(=O)O)c2=O)CC1` showed a melting point of 215 to 216 °C.

The compound `C=CC1CN(c2ncc(C(=O)N(CCCCC)c3cccc(C(F)(F)F)c3)c(N)n2)C(=O)N1` (centres undefined) yielded a melting point of 135 to 137 °C.

Turning to `O=C(NCCCOc1ccc(-n2ccnc2)cc1)c1ccc(Br)cc1`, the melting point is 183 to 185 °C.

`COC(=O)[C@H]1Cc2c([nH]c3ccccc23)[C@@H](c2ccc3c(c2)OCO3)N1C(=O)C(C)Cl` (some centres undefined) yielded a melting point of 125 to 127 °C.

For `CC(c1oc2ccc(F)cc2c(=O)c1-c1ccccc1F)n1cnc2c(N)ncnc21` (centres undefined), the melting point was in the range of 245 to 248 °C.

`CCCC[C@]12OC1CC[C@]1(C)CC[C@@H]3C[C@@]12OC3(C)C` (some centres undefined) returned a melting point of 70 to 72 °C.

Take `COc1ccc([N+](=O)[O-])c(C#N)c1C`: the melting point lay in the range of 128 to 130 °C.

In the case of `Cc1c(-c2ccncc2)nc2n(c1=O)CCCN2CC(=O)c1ccccc1`, the melting point lay in the range of 190 to 192 °C.

For the compound `COc1ccc(S(=O)(=O)N(CCC(=O)N2CCC(C(=O)O)CC2)C(CC(C)C)C(=O)NO)cc1` (centres undefined), the melting point was in the range of 118 to 120 °C.

For `COc1cc2c(cc1Nc1ncc(Cl)c(Nc3ccccc3S(=O)(=O)N(C)C)n1)CCN(CCS(C)(=O)=O)CC2`, the melting point is 84 to 101 °C.

The compound `CC1(c2ccc(Br)cc2)Cc2cc(O)c(Cl)c(Cl)c2C1=O` (centres undefined) registered a melting point of 221 to 223 °C.

For `CC(C)(C)c1ccc2c(Cl)c3ccccc3c(C=O)c2c1`, the melting point lay in the range of 126 to 129 °C.

Regarding `CCc1nc2cc(NC)c(Cl)cc2n1-c1ccc(CCNC(=O)NS(=O)(=O)c2ccc(C)cc2)cc1`, the melting point lay in the range of 95 to 100 °C.

As for `O=[N+]([O-])C(CO)(CO)c1ccccc1`, the melting point lay in the range of 96 to 97.5 °C.

As to `CNC(=O)c1ccccc1Nc1nc(Nc2cc3c(cc2OC)C(=O)N(C)CCC3)ncc1Cl`, the melting point lay within 152 to 154 °C.

In the case of `N#Cc1cc(C=O)cnc1Cl`, the melting point was 96 °C.

For the compound `O=[N+]([O-])c1ccc(F)cc1CCN1CCN(c2nsc3ccccc23)CC1`, the melting point came to 131 °C.

`CCOC(=O)c1ccn2nccc2n1`: the melting point lay within 114 to 115 °C.

On to `Cc1c(Sc2cccnc2)sc2ccc(Br)cc12`, for which the melting point lay in the range of 86 to 87 °C.

For the compound `CC1=Nc2c(F)c(F)c(F)c(F)c2SN1`, the melting point fell in the range of 290 to 291 °C.

For the compound `Cc1nc(NC(=O)c2ccccc2)sc1C(=O)NCC1CC1`, the melting point is 163 to 166 °C.

Compound `N#Cc1cc([N+](=O)[O-])ccc1N1CCC(O)CC1` yielded a melting point of 114 to 115 °C.

As for `COC(=O)c1ccc(C(=O)Oc2ccc([Si](C)(C)C)cc2C(C)=O)cc1`, the melting point was in the range of 88.5 to 90.5 °C.

`Cc1oc2cc(C3CC(=O)NC(=O)C3)ccc2c1C` gave a melting point of 252 to 254 °C.

As to `COc1ccc(C2(CNC(=S)NCC(C)C)OCCO2)cc1`, the melting point was found to be 96 °C.

As for `CCOC(=O)Cc1cccc(Oc2ccccc2)c1NC(C)=O`, the melting point lay within 106 to 107 °C.
